Laboratory results taken from the METLIN SMRT retention time set (Domingo-Almenara et al. 2019).

Test: gradient 5% acetonitrile 3 min, to 50% in 2 min, to 85% in 15 min, held 3 min, 100 µL/min
Settings: column: Zorbax Extend-C18 2.1 x 50 mm; eluents: water / acetonitrile, 0.1% formic acid
Procedure, shortened: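 Pure standards were run in mixtures of ~100 molecules by HPLC coupled to a quadrupole time-of-flight mass spectrometer. The column was a Zorbax Extend-C18 (2.1 × 50 mm, 1.8 μm) at 100 μL/min, with water and acetonitrile each containing 0.1% formic acid, in positive and negative ionization mode. Dead and dwell volumes were 40 μL and 900 μL. Retention time was taken from computationally picked adduct peaks, each manually inspected, with data collected over 3 months.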

Row | RP-LC retention time [s] | Structure (SMILES)
1 | 632 | COc1ccc(C)c2sc(N(CCN(C)C)C(=O)c3cnn(-c4ccccc4)c3C)nc12
2 | 1130 | O=c1c2cc3c(cc2nc(SCc2nc(-c4ccc(F)cc4)no2)n1CC1CCCO1)OCO3 (stereo not drawn)
3 | 607 | CCCn1c(C)cnc1C1CN(S(=O)(=O)c2cc(Cl)ccc2Cl)C1
4 | 895 | Cc1cccc(C(=O)N2CCc3cc(CNC(=O)c4cc(-c5cccs5)[nH]n4)ccc32)c1
5 | 800 | Cc1ccc(NS(=O)(=O)c2cc3n(c2)CCN(C(C)C)C3=O)c(C)c1
6 | 615 | c1ccc(-c2nc(-c3cnccn3)no2)c(OC2CCNC2)c1 (stereo not drawn)
7 | 1020 | CCC(c1cccs1)N1C(=O)[C@H]2CN(S(=O)(=O)c3ccccc3C)C[C@H]2C1=O (stereo partly drawn)
8 | 911 | CCc1nc2c(=O)n(CC(=O)N3CCN(c4cc(C)ccc4C)CC3)nc(C)c2s1
9 | 694 | O=C(Nc1cccc(Cl)c1)N1CCN(c2cnn3c(C4CC4)nnc3c2)CC1
10 | 996 | O=C(CN1CCCCC1c1nc(-c2cccs2)no1)NCc1cccs1 (stereo not drawn)
11 | 1160 | Cc1nn(Cc2cccc(C(=O)Nc3nc(-c4ccccc4)cs3)c2)c(C)c1Cl
12 | 778 | Nc1nc(NCc2ccccc2Cl)ncc1[N+](=O)[O-]
13 | 945 | CCOc1ccc(S(=O)(=O)N2CCc3c(c(-c4nnc(-c5ccccc5F)o4)nn3C)C2)cc1
14 | 1130 | CCN1C(=O)COc2ccc(-c3nc(NC(=O)c4ccc(Cl)cc4)sc3C)cc21
15 | 719 | O=c1ccc(-c2nc(-c3ccncc3)no2)cn1Cc1noc(C2CCCC2)n1
16 | 713 | Cc1sc2ccn(Cc3ccc(F)cc3)c(=O)c2c1C(=O)N1CCOCC1
17 | 617 | O=C(Cc1csc(COc2ccccc2)n1)N1CCN(c2ccccn2)CC1
18 | 918 | O=C(NCCc1ccc(F)cc1)C(=O)Nc1ccc(Cl)cn1
19 | 538 | CCNc1cc(N2CCC(CCC(=O)NCCC(C)C)CC2)ncn1
20 | 675 | Cc1ccc(NC(=O)Cn2nc3nc(N4CCOCC4)ccn3c2=O)cc1F
21 | 593 | O=C(C1CCN(c2cncnc2N2CCCCC2)CC1)N1CCOCC1
22 | 692 | CC(NC(=O)C(=O)N1CCOCC1)C(c1cccs1)N1CCN(c2ccccc2F)CC1 (stereo not drawn)

Row | RP-LC retention time [s] | Structure (SMILES)
23 | 756 | COC(=O)c1cc(OCC(=O)Nc2ccc(OC)c(OC)c2)c2cc(F)ccc2n1
24 | 1190 | O=C(NCc1cccc(Cl)c1)C1CCCN(c2nc3cccnc3n(Cc3ccccc3)c2=O)C1 (stereo not drawn)
25 | 846 | CS(=O)(=O)N1CCC(OC2CCN(C(=O)Nc3cccc(C(F)(F)F)c3)CC2)CC1
26 | 608 | Cc1ccc(NC(=O)Cn2c(N)nc(C)c(C)c2=O)c(C)c1
27 | 1070 | O=S(=O)(c1cc(-c2nnc(-c3ccc(F)cc3)o2)ccc1Cl)N1CCCC1
28 | 772 | O=C(c1cn(-c2cc(N3CCCCC3)ncn2)cn1)N1CCCC1
29 | 944 | Cc1ccc(-n2c(=O)c3c(cc(C)n3C)n(CC(=O)Nc3ccc(Br)cc3F)c2=O)cc1
30 | 649 | O=C(NC1CC1)c1cccc2c1CCN2C(=O)C1CC1
31 | 650 | Cc1noc(C2CN(C(=O)Nc3ccccc3)CC23CCOCC3)n1 (stereo not drawn)
32 | 873 | Cc1ccc(NC(=O)N2C[C@@H](F)C[C@H]2C(=O)N2CCc3ccccc3C2)cc1F
33 | 1050 | Cc1ccccc1-c1cc2c(=O)n(Cc3nc(-c4ccc5c(c4)OCO5)no3)ccn2n1
34 | 782 | O=C(Cc1ccc(F)cc1)N1CCN(c2cc(-c3cccs3)[nH]n2)CC1
35 | 1280 | CCCCc1ccc(N2C(=O)C3N=NN(Cc4nc(-c5ccc(Cl)cc5)no4)C3C2=O)cc1 (stereo not drawn)
36 | 765 | CCNC(=O)c1nc(C(=O)NCc2ccccc2F)cs1
37 | 675 | CCn1cc(CCNC(=O)c2ccc(OC)cc2)c2cccnc21
38 | 630 | COc1ccc(-n2ccnc2SCC(=O)NCc2ccc3c(c2)OCO3)c(OC)c1
39 | 1000 | CCOC(=O)c1cn2nc(SCc3ccccc3)nc2nc1C
40 | 651 | CCCNC(=O)N1CCC(N2CCN(Cc3cccc(F)c3)C(=O)C2=O)CC1
41 | 1060 | N#Cc1ccc(C(=O)N2CCCC2c2nc(-c3cccc(C(F)(F)F)c3)no2)cc1 (stereo not drawn)
42 | 735 | CCn1c(=O)sc2cc(S(=O)(=O)N3CCC(C(=O)Nc4ccc(C)cn4)CC3)ccc21
43 | 998 | Cc1ccc(CNC(=O)C2(C)CCN(S(=O)(=O)c3ccccc3Cl)CC2)cc1
44 | 706 | O=C(c1ccccc1F)N1CCC(CNC(=O)C2(c3ccccc3)CCOCC2)CC1

Row | RP-LC retention time [s] | Structure (SMILES)
45 | 1140 | CCOC(=O)c1sc(NC(=O)c2ccc([N+](=O)[O-])cc2)nc1-c1ccccc1
46 | 645 | Cc1cccc(Nc2nc(C)c(C(=O)NC3CCN(Cc4ccccc4)CC3)s2)n1
47 | 882 | CCC(NC(=O)c1cnc(-c2ccccc2)nc1-c1ccncc1)c1ccc(OC)cc1 (stereo not drawn)
48 | 876 | COc1cccc(-c2noc(Cn3ccn(-c4ccc(Cl)cc4)c(=O)c3=O)n2)c1
49 | 787 | CS(=O)(=O)N1CCC(OC2CCN(C(=O)Nc3cccc(Cl)c3F)CC2)CC1
50 | 734 | CCCC(=O)Nc1ccc(CCc2nc3ccc(C(=O)NCCC4=CCCCC4)cc3[nH]2)cc1
51 | 1080 | O=c1c2sccc2n(Cc2nc(-c3ccc(Cl)c(F)c3)no2)c(=O)n1-c1ccc(F)cc1
52 | 791 | Cc1ccccc1NC(=O)N1CCC(n2cnc3c(Cl)cccc3c2=O)CC1
53 | 721 | COc1ccc(OC)c(CNC(=O)C2CCN(S(=O)(=O)c3ccc4c(c3)NC(=O)CO4)CC2)c1
54 | 615 | Cc1nnc(-c2coc(S(=O)(=O)N3CCN(C4CCCCC4)CC3)c2)o1
55 | 1070 | CCOc1ccc(-c2csc(NC(=O)CS(=O)(=O)c3ccc(Cl)cc3)n2)cc1
56 | 653 | CC1=C(c2ccc(C)cc2)S(=O)(=O)N=C1N1CCCN(C(=O)c2ccco2)CC1
57 | 822 | CCN1C(=O)c2c(C(=O)NCCCc3ccccc3)ncn2CC1(C)C(=O)NC1CCCC1 (stereo not drawn)
58 | 817 | Cc1nnsc1C(=O)N1CCC2(CC1)OCCN2S(=O)(=O)c1ccc(Cl)cc1
59 | 662 | CCn1ncc(CN2CC(c3nc(CCOCc4ccccc4)no3)C2)c1C
60 | 808 | Cc1ccc(NC(=O)Cn2c(=O)c3cc(C4CC4)nn3c3ncccc32)c(C)c1
61 | 755 | C=Cc1ccc(Cn2c(C)c(CNCCc3ccco3)c(C(=O)O)c2C)cc1
62 | 792 | Cc1cc2nc(CSc3nnc(-c4cccc(Cl)c4)o3)cc(=O)n2o1
63 | 696 | COc1ccc(CNC(=O)c2cc3c(s2)CCN(C(C)=O)C3)cc1
64 | 759 | Cc1oc(-c2ccc(NC(=O)c3ccco3)cc2)nc1Cn1cccn1
65 | 900 | Cc1ccc(Nc2nc(-c3ccccc3)c(CC(=O)O)s2)cc1
66 | 681 | CN1C(=O)c2cccn2CC1C(=O)Nc1ccccc1 (stereo not drawn)

Row | RP-LC retention time [s] | Structure (SMILES)
67 | 839 | CCc1onc(C)c1C1CCCN1C(=O)CCc1ccc(OC)cc1 (stereo not drawn)
68 | 718 | O=C(CC1CCN(C(=O)c2ccc3oc(-c4ccccc4)nc3c2)CC1)NCC1CCCO1 (stereo not drawn)
69 | 580 | COc1ccc(C(=O)N2CCN(c3nc(CN4CCOCC4)cs3)CC2)cn1
70 | 514 | O=C(C1CCCN(c2nnc3ccccn23)C1)N1CCN(c2ccccn2)CC1 (stereo not drawn)
71 | 769 | Cc1cc2c(c(=O)n1Cc1ccccc1)C(C(C)C)C(C#N)=C(N)O2 (stereo not drawn)
72 | 837 | O=C([C@@H]1C[C@H](F)CN1S(=O)(=O)c1cc(F)cc(F)c1)N1CCCCC1
73 | 699 | CCOc1ccc(-c2csc3c(=O)n(Cc4cccnc4)cnc23)cc1OCC
74 | 952 | Cc1ccc(CNC(=O)c2nnc(-c3ccc(S(=O)(=O)N4CCCCC4)cc3)o2)o1
75 | 657 | O=S(=O)(Nc1cccc(F)c1)c1ccc2nncn2c1
76 | 1020 | O=C(NCCc1csc(-c2ccccc2)n1)C1CCN(C(=O)c2ccc(F)c(Cl)c2)CC1
77 | 552 | Fc1ccc(CN2CCC(Cc3nc(-c4ccncc4)n[nH]3)C2)c(F)c1 (stereo not drawn)
78 | 660 | CC(C)NC(=O)c1cc(C(C)C)[nH]n1
79 | 621 | CCc1ccc2nc(NCc3ccccn3)sc2c1
80 | 852 | O=c1oc2cc(O)ccc2cc1-c1ccc(F)cc1
81 | 843 | COc1c(C)cnc(Cn2ccn3nc(-c4ccc(F)cc4)c(CO)c3c2=O)c1C
82 | 577 | Cc1nccn1-c1cc(N2CCC3(CC2)OCCO3)nc2ccnn12
83 | 612 | O=C1CC(c2nc3ccccc3n2CCN2CCOCC2)CN1Cc1ccc(F)cc1 (stereo not drawn)
84 | 786 | CCN1CCN(S(=O)(=O)c2cccc(-c3nc(-c4ccc(C)cc4)no3)c2)CC1
85 | 860 | Cn1c(=O)c(N2CCN(C(=O)c3cc(F)cc(F)c3)CC2)nc2cccnc21
86 | 588 | CCOc1ccc(NC(=O)N2CCC(N(C)C(C)C)CC2)cc1
87 | 817 | Cc1ccc(-n2nc3c(=O)n(CCCC(=O)NCc4ccc(C)o4)nc(C)c3c2C)cc1
88 | 772 | O=C(CSc1nnc2c3sc(N4CCCC4)nc3ncn12)Nc1ccccc1
